Data as given in patent US7576222B2, “Alkynyl-containing tryptophan derivative inhibitors of TACE/matrix metalloproteinase” (priority 2004, dated 2009).
pIC50: −log10 of the molar value.

What follows are compounds tested against T1, catalytic domain of the recombinant TACE protein (Homo sapiens, UniProt P78536) (assay: TACE FRET assay using TACE cat). Settings: not given.
T1 construct: The catalytic domain of the recombinant TACE protein was expressed and purified; made in house
T1 sequence (P78536 223-474 limits assumed): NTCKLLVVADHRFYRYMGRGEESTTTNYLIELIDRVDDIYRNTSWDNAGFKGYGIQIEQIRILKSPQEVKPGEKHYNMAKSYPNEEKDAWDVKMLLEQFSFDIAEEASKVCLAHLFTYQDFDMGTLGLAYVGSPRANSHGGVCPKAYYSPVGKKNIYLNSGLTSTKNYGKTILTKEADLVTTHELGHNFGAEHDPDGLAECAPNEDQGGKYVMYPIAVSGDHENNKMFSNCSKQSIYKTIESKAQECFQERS
Assay type: biochemical
Procedure: TACE FRET Assay Using TACE Cat
“K” is the IC50. Generally, “n” and “B” are floated, noting that n (Hill slope) should be close to 1 and B (background offset) to 0.
Pro-TNF-α substrate peptide Abz-[…]-Dpa (AnaSpec, San Jose, Calif., WARC-1) was prepared as a 2 mM stock solution in the TACE assay buffer (50 mM Tris-HCl, pH 7.4, 25 mM NaCl, 4% Glycerol, 0.005% Brij 35). The catalytic domain of the recombinant TACE protein was expressed and purified. The TACE protein (1 ug/ml) was pretreated with the inhibitors at various concentrations for 10 min. at room temperature. The reaction was initiated by the addition of the substrate peptide. […] The initial rate (slope) of the reaction was determined using a fluorescence plate reader (Molecular Devices, Spectra Max Gemini XS).
For `CC#CCOc1ccc(S(=O)(=O)N[C@@H](Cc2cn(CC3CCCCC3)c3ccc(OC)cc23)C(=O)O)cc1` [Example 70, N-{[4-(but-2-ynyloxy)phenyl]sulfonyl}-1-(cyclohexylmethyl)-5-methoxytryptophan], the pIC50 was 5.73.
`CC#CCOc1ccc(S(=O)(=O)N[C@@H](Cc2c(C)n(Cc3ccccc3C)c3ccc(OC)cc23)C(=O)O)cc1` [Example 186, N-{[4-(but-2-ynyloxy)phenyl]sulfonyl}-5-methoxy-2-methyl-1-(2-methylbenzyl)tryptophan] gave a pIC50 of 6.55.
`CC#CCOc1ccc(S(=O)(=O)N[C@H](Cc2cn(Cc3ccc(C#N)cc3)c3ccccc23)C(=O)O)cc1` [Example 45, N-{[4-(but-2-ynyloxy)phenyl]sulfonyl}-1-(4-cyanobenzyl)-D-tryptophan] gave a pIC50 of 5.39.

Same assay, conditions: TACE FRET assay, catalytic domain of recombinant TACE; read-out: TACE IC50
In the case of `CC#CCOc1ccc(S(=O)(=O)N[C@H](Cc2cn(Cc3ccc(C(F)(F)F)cc3)c3ccccc23)C(=O)O)cc1` [Example 41, N-{[4-(but-2-ynyloxy)phenyl]sulfonyl}-1-[4-(trifluoromethyl)benzyl]-D-tryptophan], the pIC50 was 5.36.

Same assay, conditions: read-out: TACE Inhibition (%)
`CC#CCOc1ccc(S(=O)(=O)N[C@@H](Cc2cn(Cc3ccccc3)c3ccc(C(=O)O)cc23)C(=O)O)cc1` [Example 103, 1-benzyl-N-{[4-(but-2-ynyloxy)phenyl]sulfonyl}-5-carboxytryptophan] was tested, and the inhibition at 1 µM was 6.16%.
`CC#CCOc1ccc(S(=O)(=O)N[C@@H](Cc2cn(CC(C)C)c3ccc(Cl)cc23)C(=O)O)cc1` [Example 85, N-{[4-(but-2-ynyloxy)phenyl]sulfonyl}-5-chloro-1-isobutyltryptophan] showed an inhibition at 1 µM of 32.9%.
`CC#CCOc1ccc(S(=O)(=O)N[C@@H](Cc2c(C)n(Cc3ccc(C(F)(F)F)cc3)c3ccccc23)C(=O)O)cc1` [Example 150, N-{[4-(but-2-ynyloxy)phenyl]sulfonyl}-2-methyl-1-[4-(trifluoromethyl)benzyl]tryptophan] gave an inhibition at 1 µM of 35.6%.
With `CC#CCOc1ccc(S(=O)(=O)N[C@@H](Cc2cn(Cc3ccc(OC)cc3)c3ccc(OC)cc23)C(=O)O)cc1` [Example 53, N-{[4-(but-2-ynyloxy)phenyl]sulfonyl}-5-methoxy-1-(4-methoxybenzyl)tryptophan] the inhibition at 1 µM was 30.6%.
`CC#CCOc1ccc(S(=O)(=O)N[C@@H](Cc2cn(Cc3ccc(C)cc3)c3ccc(C#N)cc23)C(=O)O)cc1` [Example 136, N-{[4-(but-2-ynyloxy)phenyl]sulfonyl}-5-cyano-1-(4-methylbenzyl)tryptophan] showed an inhibition at 1 µM of 57.8%.
In the case of `CC#CCOc1ccc(S(=O)(=O)N[C@@H](Cc2cn(Cc3ccc(C(C)C)cc3)c3ccc(OC)cc23)C(=O)O)cc1` [Example 63, N-{[4-(but-2-ynyloxy)phenyl]sulfonyl}-1-(4-isopropylbenzyl)-5-methoxytryptophan], the inhibition at 1 µM was 28.2%.
`CC#CCOc1ccc(S(=O)(=O)N[C@@H](Cc2cn(Cc3ccc(C(C)C)cc3)c3ccc(C#N)cc23)C(=O)O)cc1` [Example 142, N-{[4-(but-2-ynyloxy)phenyl]sulfonyl}-5-cyano-1-(4-isopropylbenzyl)tryptophan] gave an inhibition at 1 µM of 8.34%.
Work on `CC#CCOc1ccc(S(=O)(=O)N[C@@H](Cc2c(C)n(CC3CCCCC3)c3ccc(Cl)cc23)C(=O)O)cc1` [Example 102, N-{[4-(but-2-ynyloxy)phenyl]sulfonyl}-5-chloro-1-(cyclohexylmethyl)-2-methyltryptophan] yielded an inhibition at 1 µM of 56.9%.
`CC#CCOc1ccc(S(=O)(=O)N[C@@H](Cc2cn(Cc3ccc(C(F)(F)F)cc3)c3ccc(Cl)cc23)C(=O)O)cc1` [Example 77, N-{[4-(but-2-ynyloxy)phenyl]sulfonyl}-5-chloro-1-[4-(trifluoromethyl)benzyl]tryptophan] showed an inhibition at 1 µM of 29.8%.
In the case of `CC#CCOc1ccc(S(=O)(=O)N[C@@H](Cc2cn(Cc3ccc(Cl)cc3)c3ccc(Cl)cc23)C(=O)O)cc1` [Example 81, N-{[4-(but-2-ynyloxy)phenyl]sulfonyl}-5-chloro-1-(4-chlorobenzyl)tryptophan], the inhibition at 1 µM was 13.9%.
With `CC#CCOc1ccc(S(=O)(=O)N[C@@H](Cc2cn(Cc3ccc4c(c3)OCO4)c3ccc(Cl)cc23)C(=O)O)cc1` [Example 83, 1-(1,3-benzodioxol-5-ylmethyl)-N-{[4-(but-2-ynyloxy)phenyl]sulfonyl}-5-chlorotryptophan] the inhibition at 1 µM was 31.1%.
In the case of `CC#CCOc1ccc(S(=O)(=O)N[C@@H](Cc2c(C)n(CC)c3ccc(OC)cc23)C(=O)O)cc1` [Example 209, N-{[4-(but-2-ynyloxy)phenyl]sulfonyl}-1-ethyl-5-methoxy-2-methyltryptophan], the inhibition at 1 µM was 69.8%.
`CC#CCOc1ccc(S(=O)(=O)N[C@@H](Cc2c(C)n(Cc3ccc(OC(F)(F)F)cc3)c3ccc(OC)cc23)C(=O)O)cc1` [Example 196, N-{[4-(but-2-ynyloxy)phenyl]sulfonyl}-5-methoxy-2-methyl-1-[4-(trifluoromethoxy)benzyl]tryptophan] gave an inhibition at 1 µM of 72.8%.
For `CC#CCOc1ccc(S(=O)(=O)N[C@@H](Cc2c(C)n(Cc3ccc(OC(F)(F)F)cc3)c3ccc(Cl)cc23)C(=O)O)cc1` [Example 94, N-{[4-(but-2-ynyloxy)phenyl]sulfonyl}-5-chloro-2-methyl-1-[4-(trifluoromethoxy)benzyl]tryptophan], the inhibition at 1 µM was 47.4%.
For `CC#CCOc1ccc(S(=O)(=O)N[C@@H](Cc2cn(Cc3cccc(C)c3)c3ccc(C(=O)O)cc23)C(=O)O)cc1` [Example 105, N-{[4-(but-2-ynyloxy)phenyl]sulfonyl}-5-carboxy-1-(3-methylbenzyl)tryptophan], the inhibition at 1 µM was 11%.
With `CC#CCOc1ccc(S(=O)(=O)N[C@@H](Cc2c(C)n(Cc3cc(F)cc(F)c3)c3ccccc23)C(=O)O)cc1` [Example 155, N-{[4-(but-2-ynyloxy)phenyl]sulfonyl}-1-(3,5-difluorobenzyl)-2-methyltryptophan] the inhibition at 1 µM was 54.3%.
`CC#CCOc1ccc(S(=O)(=O)N[C@@H](Cc2cn(Cc3ccccc3C(F)(F)F)c3ccc(OC)cc23)C(=O)O)cc1` [Example 55, N-{[4-(but-2-ynyloxy)phenyl]sulfonyl}-5-methoxy-1-[2-(trifluoromethyl)benzyl]tryptophan] was tested, and the inhibition at 1 µM was 31.3%.
`CC#CCOc1ccc(S(=O)(=O)N[C@@H](Cc2c(C)n(Cc3cccc(C(F)(F)F)c3)c3ccccc23)C(=O)O)cc1` [Example 149, N-{[4-(but-2-ynyloxy)phenyl]sulfonyl}-2-methyl-1-[3-(trifluoromethyl)benzyl]tryptophan] was tested, and the inhibition at 1 µM was 50.5%.
`CC#CCOc1ccc(S(=O)(=O)N[C@@H](Cc2cn(Cc3ccc(F)cc3)c3ccc(C#N)cc23)C(=O)O)cc1` [Example 141, N-{[4-(but-2-ynyloxy)phenyl]sulfonyl}-5-cyano-1-(4-fluorobenzyl)tryptophan] showed an inhibition at 1 µM of 29.6%.
`CC#CCOc1ccc(S(=O)(=O)N[C@@H](Cc2cn(CCCCC)c3ccc(C(=O)O)cc23)C(=O)O)cc1` [Example 130, N-{[4-(but-2-ynyloxy)phenyl]sulfonyl}-5-carboxy-1-pentyltryptophan] was tested, and the inhibition at 1 µM was -5.71%.
`CC#CCOc1ccc(S(=O)(=O)N[C@@H](Cc2cn(Cc3cccc(F)c3)c3ccc(OC)cc23)C(=O)O)cc1` [Example 59, N-{[4-(but-2-ynyloxy)phenyl]sulfonyl}-1-(3-fluorobenzyl)-5-methoxytryptophan] gave an inhibition at 1 µM of 44.4%.
Work on `CC#CCOc1ccc(S(=O)(=O)N[C@@H](Cc2c(C)n(Cc3ccccc3)c3ccc(Cl)cc23)C(=O)O)cc1` [Example 88, 1-benzyl-N-{[4-(but-2-ynyloxy)phenyl]sulfonyl}-5-chloro-2-methyltryptophan] yielded an inhibition at 1 µM of 62.8%.
`CC#CCOc1ccc(S(=O)(=O)N[C@@H](Cc2cn(Cc3ccccc3OC)c3ccc(OC)cc23)C(=O)O)cc1` [Example 51, N-{[4-(but-2-ynyloxy)phenyl]sulfonyl}-5-methoxy-1-(2-methoxybenzyl)tryptophan] showed an inhibition at 1 µM of 38.3%.
`CC#CCOc1ccc(S(=O)(=O)N[C@@H](Cc2cn(Cc3ccc(Cl)cc3)c3ccc(C(=O)O)cc23)C(=O)O)cc1` [Example 119, N-{[4-(but-2-ynyloxy)phenyl]sulfonyl}-5-carboxy-1-(4-chlorobenzyl)tryptophan] was tested, and the inhibition at 1 µM was 11.7%.
For `CC#CCOc1ccc(S(=O)(=O)N[C@@H](Cc2c(C)n(Cc3ccc(C)cc3)c3ccc(Cl)cc23)C(=O)O)cc1` [Example 92, N-{[4-(but-2-ynyloxy)phenyl]sulfonyl}-5-chloro-2-methyl-1-(4-methylbenzyl)tryptophan], the inhibition at 1 µM was 64%.
With `CC#CCOc1ccc(S(=O)(=O)N[C@@H](Cc2cn(CC(C)C)c3ccc(C(=O)O)cc23)C(=O)O)cc1` [Example 129, N-{[4-(but-2-ynyloxy)phenyl]sulfonyl}-5-carboxy-1-isobutyltryptophan] the inhibition at 1 µM was -4.96%.
Work on `CC#CCOc1ccc(S(=O)(=O)N[C@@H](Cc2cn(Cc3ccc(OC)cc3)c3ccc(C#N)cc23)C(=O)O)cc1` [Example 139, N-{[4-(but-2-ynyloxy)phenyl]sulfonyl}-5-cyano-1-(4-methoxybenzyl)tryptophan] yielded an inhibition at 1 µM of 25.1%.
`CC#CCOc1ccc(S(=O)(=O)N[C@@H](Cc2cn(Cc3cccc(C)c3)c3ccc(Cl)cc23)C(=O)O)cc1` [Example 73, N-{[4-(but-2-ynyloxy)phenyl]sulfonyl}-5-chloro-1-(3-methylbenzyl)tryptophan] was tested, and the inhibition at 1 µM was 28%.
`CC#CCOc1ccc(S(=O)(=O)N[C@@H](Cc2cn(Cc3ccccc3C#N)c3ccc(OC)cc23)C(=O)O)cc1` [Example 64, N-{[4-(but-2-ynyloxy)phenyl]sulfonyl}-1-(2-cyanobenzyl)-5-methoxytryptophan] showed an inhibition at 1 µM of 40.9%.
